Measurements reported in patent US12472168B2, “Ring-fused thiazolino 2-pyridones, methods for preparation thereof and their use in the treatment and/or prevention of a disease involving gram-positive bacteria” (Quretech Bio AB, priority 2017, dated 2025).
≈ marks a conversion by molar mass, not a printed value.

Assays:
E. faecalis = assay: MIC and MBC assays; format: cell-based; conditions: Enterococcus faecalis, compound alone, no antibiotic; for MIC: overnight (18 hrs)
Method: (§1) MIC was defined by the lowest concentration of the test compound that inhibits visible growth of pathogen of interest. The optical density of the pathogen of interest culture was measured by OD600.
(§2) MBC was determined colony forming units (CFUs) enumeration by serially diluting and plating bacterial cultures on BHI plates.
(§3) Thus, no antibiotic was used in Table 2.

Streptococcus = assay: MIC and MBC assays; format: cell-based; conditions: compound alone, no antibiotic
Method: as §1, §2, §3

MRSA [1] = assay: Effect of compound alone on MRSA, CFU counts; format: cell-based, Methicillin-resistant Staphylococcus aureus; conditions: compound 25 μM alone, 37° C. 18 h
Method: (§4) The mixture (200 μL) was incubated at 37° C. for 18 h. A control without the test compound was performed in the same way.

MRSA [2] = assay: Effect of combination with Oxacillin on MRSA, CFU counts; format: cell-based, Methicillin-resistant Staphylococcus aureus; conditions: compound 25 μM in combination with Oxacillin 9 μM, 37° C. 18 h
Method: as §4

MRSA [3] = assay: Minimum Inhibitory Concentration (MIC) and Minimum Bactericidal Concentration (MBC) assays; format: cell-based, Methicillin-resistant Staphylococcus aureus; conditions: Staphylococcus aureus, compound alone, no antibiotic; for MIC: 18 h, overnight (18 hrs), read-out: MIC
Method: as §1, §2, §3

E. faecalis OG1RF [4] = assay: Combination with Vancomycin in vivo, mouse model of CAUTI, OG1RF (vancomycin sensitive); design: species or system Enterococcus faecalis; conditions: C57BL/6Ncr mice
Method: (§5) Mice used in this study were six-week-old female wild-type C57BL/6Ncr mice. Mice were anesthetized by inhalation of isoflurane and implanted with a 5-mm length of platinum-cured silicone catheter. Then, mice were infected immediately following catheter implantation with 50 μl of ˜2×10^7 CFU of E. faecalis OG1RF (FIG. 10A and FIG. 10B) or V583 (FIG. 11A and FIG. 11B) in PBS (1 mL) was introduced in the bladder lumen by transurethral inoculation. […] Mice were sacrificed at 48 hours post-infection by cervical dislocation after anaesthesia inhalation, and the bladders were aseptically harvested. Subsequently, the silicone implant was retrieved from the bladder. Catheters were placed in 1×PBS (1 mL), sonicated for 10 min, to detach E. faecalis and bladders were homogenized in 1×PBS (1 mL). For bacterial enumeration on catheters and bladder, samples were serially diluted and plated on BHI for CFU enumeration.

[5] = test system: vancomycin resistant E. faecalis V583; assay: Combination with Vancomycin in vivo, mouse model of CAUTI, V583 (vancomycin resistant); design: species or system Enterococcus faecalis; conditions: C57BL/6Ncr mice
Method: as §5

[6] = test system: Vancomycin Resistant Enterococcus (VRE) strain V583; assay: Effect of combination of Example 11 and Vancomycin on VRE (V583), CFU counts; format: cell-based; conditions: for avg. CFU: VRE V583 OD 0.001, 18 h
Method: The mixture (200 μL) was incubated at 37° C. for 18 h Controls were performed without bacteria-vehicle (DMSO), Vancomycin vehicle (water) and BHI controls that use those as treatment to the inoculum, to ensure no previous bacterial contamination in the reagents. Bacterial CFU were counted as standard methods using serial dilution plated on BHI plates to determine the effect of each treatment.

E. faecalis OG1RF [7] = assay: Combination with Gentamicin in vivo, mouse model of CAUTI, OG1RF; design: species or system Enterococcus faecalis; conditions: C57BL/6Ncr mice
Method: as §5, with “catheter.” for “catheter. Then, mice were infected immediately following catheter implantation with 50 μl of ˜2×10^7 CFU of E. faecalis OG1RF (FIG. 10A and FIG. 10B) or V583 (FIG. 11A and FIG. 11B) in PBS (1 mL) was introduced in the bladder lumen by transurethral inoculation.”

E. faecalis OG1RF [8] = assay: Stand alone activity in vivo, mouse model of catheter-associated urinary tract infection (CAUTI); design: species or system Enterococcus faecalis; conditions: C57BL/6Ncr mice; 10 mg/kg intraperitoneally 24 hours post-infection; sacrificed 48 hours post-infection; compound alone
Method: as §5, with “OG1RF” for “OG1RF (FIG. 10A and FIG. 10B) or V583 (FIG. 11A and FIG. 11B)”, “mL).” for “mL). For bacterial enumeration on catheters and bladder, samples were serially diluted and plated on BHI for CFU enumeration.”
Mice used in this study were six-week-old female wild-type C57BL/6Ncr mice. Mice were anesthetized by inhalation of isoflurane and implanted with a 5-mm length of platinum-cured silicone catheter.
Mice were sacrificed at 48 hours post-infection by cervical dislocation after anaesthesia inhalation, and the bladders were aseptically harvested. Subsequently, the silicone implant was retrieved from the bladder. Catheters were placed in 1×PBS (1 mL), sonicated for 10 min, to detach E. faecalis and bladders were homogenized in 1×PBS (1 mL). For bacterial enumeration on catheters and bladder, samples were serially diluted and plated on BHI for CFU enumeration.

E. faecalis OG1RF [9] = assay: Effect of combination of Gentamicin and Example 11 on E. faecalis OG1RF in vitro (FIG. 7); format: cell-based, Enterococcus faecalis; conditions: agent alone
[10] = 3 mg/kg intraperitoneally 24 hours post-infection, agent alone
[11] = combination of Vancomycin and Example 49, 3 mg/kg intraperitoneally
[12] = 2 mg/kg intraperitoneally 24 hours post-infection, agent alone
[13] = combination of Gentamicin and Example 49, 2 mg/kg intraperitoneally

Molecule | MBC (E. faecalis) | MIC (E. faecalis) | MBC (Streptococcus) | CFUs/ml (MRSA [1]; MRSA OD 0.001) | CFUs/ml (MRSA [1]; MRSA OD 0.1) | CFUs/ml (MRSA [1]; MRSA OD 1) | CFUs/ml (MRSA [2]; MRSA OD 0.1) | CFUs/ml (MRSA [2]; MRSA OD 1) | MIC (MRSA [3]) | MBC (MRSA [3]) | reduction of bacterial titers in the bladders (E. faecalis OG1RF [4]; [10]) | reduction of bacterial titers on the catheters (E. faecalis OG1RF [4]; [10]) | reduction of bacterial titers in the bladder [5, 10] | reduction of bacterial titers on the catheter [5, 10] | reduction of bacterial titers in the bladders (E. faecalis OG1RF [7]; [12]) | reduction of bacterial titers on catheters (E. faecalis OG1RF [7]; [12]) | other results
CCCCOc1ccc(-c2sc3c(OC)c(Cc4cccc5ccccc45)cc(=O)n3c2C(=O)O)cc1C [Example 9, 8-(4-Butoxy-3-methyl-phenyl)-5-methoxy-4-[(1-naphthyl)methyl]-2-oxo-7-thia-1-azabicyclo[4.3.0]nona-3,5,8-triene-9-carboxylic acid] | 12.5 µM (≈ 6.6 µg/mL) | 39 µM (≈ 20.6 µg/mL) | 8 µM (≈ 4.22 µg/mL) | 8.0E+04 CFUs/ml | 4.4E+06 CFUs/ml | 5.0E+07 CFUs/ml | 2.6E+04 CFUs/ml | 3E+06 CFUs/ml | 17 µM (≈ 8.97 µg/mL) | 37 µM (≈ 19.5 µg/mL) | – | – | – | – | – | – | –
CN[C@H](CC(C)C)C(=O)N[C@H]1C(=O)N[C@@H](CC(N)=O)C(=O)N[C@H]2C(=O)N[C@H]3C(=O)N[C@H](C(=O)N[C@H](C(=O)O)c4cc(O)cc(O)c4-c4cc3ccc4O)[C@H](O)c3ccc(c(Cl)c3)Oc3cc2cc(c3O[C@@H]2O[C@H](CO)[C@@H](O)[C@H](O)[C@H]2O[C@H]2C[C@](C)(N)[C@H](O)[C@H](C)O2)Oc2ccc(cc2Cl)[C@H]1O [Vancomycin, vancomycin] | – | – | – | – | – | – | – | – | – | – | did not result in reduction | did not result in reduction | 0.3 log units | no effect | – | – | avg. CFU ([6]; Experiment 1, Vancomycin 1 μg/ml alone (Control)): 1.20E+09 CFU; avg. CFU ([6]; Experiment 1, Vancomycin 2 μg/ml alone (Control)): 1.35E+09 CFU; avg. CFU ([6]; Experiment 1, Vancomycin 4 μg/ml alone (Control)): 5.00E+08 CFU; avg. CFU ([6]; Experiment 1, Vancomycin 8 μg/ml alone (Control)): 4.00E+08 CFU; avg. CFU ([6]; Experiment 1, Vancomycin 16 μg/ml alone (Control)): 3.00E+08 CFU; avg. CFU ([6]; Experiment 1, Vancomycin 32 μg/ml alone (Control)): 5.50E+08 CFU; avg. CFU ([6]; Experiment 1, Vancomycin 64 μg/ml alone (Control)): 4.00E+07 CFU; avg. CFU ([6]; Experiment 2, Vancomycin 1 μg/ml alone (Control)): 1.70E+09 CFU; avg. CFU ([6]; Experiment 2, Vancomycin 2 μg/ml alone (Control)): 1.40E+09 CFU; avg. CFU ([6]; Experiment 2, Vancomycin 4 μg/ml alone (Control)): 8.50E+08 CFU; avg. CFU ([6]; Experiment 2, Vancomycin 8 μg/ml alone (Control)): 8.50E+08 CFU; avg. CFU ([6]; Experiment 2, Vancomycin 16 μg/ml alone (Control)): 4.50E+08 CFU; avg. CFU ([6]; Experiment 2, Vancomycin 32 μg/ml alone (Control)): 1.95E+06 CFU; avg. CFU ([6]; Experiment 2, Vancomycin 64 μg/ml alone (Control)): 6.00E+04 CFU; effect on the bacterial growth ([6]; Vancomycin alone at a concentration below 64 μg/ml, VRE V583): no or no substantial effect
CCCCCOc1ccc(-c2sc3c(OC)c(Cc4c5ccccc5cc5ccccc45)cc(=O)n3c2C(=O)O)cc1C [Example 49, 7-(anthracen-9-ylmethyl)-8-methoxy-2-(3-methyl-4-(pentyloxy)phenyl)-5-oxo-thiazolo[3,2-a]pyridine-3-carboxylic acid] | – | – | – | – | – | – | – | – | – | – | about 1 log unit | about 1 log unit | about 0.5 log units | no effect | about 0.2 log units | ~0.5 log units | reduction of bacterial titers in the bladder (E. faecalis OG1RF [4]; [11]): about 2 log units; reduction of bacterial titers on the catheters (E. faecalis OG1RF [4]; [11]): about 2 log units; reduction of bacterial titers in the bladder (E. faecalis OG1RF [7]; [13]): about 2 log units; reduction of bacterial titers on catheters (E. faecalis OG1RF [7]; [13]): about 1.5 log units; reduction of bacterial titers in the bladder [5, 11]: about 2 log units; reduction of bacterial titers on the catheter [5, 11]: about 1 log unit; reduction of bacterial titers in the bladder (E. faecalis OG1RF [8]): about 1.5 log units; reduction of bacterial titers on the catheters (E. faecalis OG1RF [8]): about 1.5 log units
CCCCCOc1ccc(-c2sc3c(OC)c(Cc4cccc5ccccc45)cc(=O)n3c2C(=O)O)cc1C [Example 8, 5-Methoxy-4-[(1-naphthyl)methyl]-2-oxo-8-[4-(pentyloxy)-3-methyl-phenyl]-7-thia-1-azabicyclo[4.3.0]nona-3,5,8-triene-9-carboxylic acid] | 12.5 µM (≈ 6.77 µg/mL) | 25 µM (≈ 13.5 µg/mL) | 7 µM (≈ 3.79 µg/mL) | 4.0E+05 CFUs/ml | 6.0E+06 CFUs/ml | 6.0E+07 CFUs/ml | 1.7E+04 CFUs/ml | 1E+06 CFUs/ml | 12 µM (≈ 6.5 µg/mL) | 13 µM (≈ 7.04 µg/mL) | – | – | – | – | – | – | –
gentamicin [reference compound] | – | – | – | – | – | – | – | – | – | – | – | – | – | – | did not result in reduction | did not result in reduction | number of observed bacterial CFUs/ml (E. faecalis OG1RF [9]): did not result in a decrease
